pIC50: −log10 of the molar value.
Tests used:
[1] = target: Carbonic anhydrase; experiment: Inhibition of carbonic anhydrase (unknown origin); assay type: protein assay, Homo sapiens
[2] = cells; conditions: Homo sapiens, PC-3, 48 h
Description: Cytotoxic activity against human PC3 cells after 48 hrs by MTT assay

[3] = Inhibition of buttermilk xanthine oxidase (unknown origin) at 500 uM incubated for 10 mins by spectrophotometry
[4] = species on record: Homo sapiens; experiment: Inhibition of alpha-chymotrypsin (unknown origin) using N-succinyl-L-phenylalanine-p-nitroanilide substrate at 500 uM
[5] = target: Carbonic anhydrase (Homo sapiens) (UniProt P00918+P43166+P00915+P07451+P23280+O43570+Q9ULX7+Q16790+P22748+Q8N1Q1+Q9Y2D0+P35218); experiment: Inhibition of carbonic anhydrase (unknown origin) at 500 uM; assay type: protein assay
[6] = Inhibition of buttermilk xanthine oxidase (unknown origin) incubated for 10 mins by spectrophotometry
[7] = target: T1, Beta-glucuronidase (Homo sapiens) (UniProt P08236); experiment: Inhibition of beta-glucuronidase (unknown origin) at 500 uM using p-nitrophenyl-beta-D-glucuronide substrate incubated for 30 mins by spectrophotometry
T1 sequence (whole entry): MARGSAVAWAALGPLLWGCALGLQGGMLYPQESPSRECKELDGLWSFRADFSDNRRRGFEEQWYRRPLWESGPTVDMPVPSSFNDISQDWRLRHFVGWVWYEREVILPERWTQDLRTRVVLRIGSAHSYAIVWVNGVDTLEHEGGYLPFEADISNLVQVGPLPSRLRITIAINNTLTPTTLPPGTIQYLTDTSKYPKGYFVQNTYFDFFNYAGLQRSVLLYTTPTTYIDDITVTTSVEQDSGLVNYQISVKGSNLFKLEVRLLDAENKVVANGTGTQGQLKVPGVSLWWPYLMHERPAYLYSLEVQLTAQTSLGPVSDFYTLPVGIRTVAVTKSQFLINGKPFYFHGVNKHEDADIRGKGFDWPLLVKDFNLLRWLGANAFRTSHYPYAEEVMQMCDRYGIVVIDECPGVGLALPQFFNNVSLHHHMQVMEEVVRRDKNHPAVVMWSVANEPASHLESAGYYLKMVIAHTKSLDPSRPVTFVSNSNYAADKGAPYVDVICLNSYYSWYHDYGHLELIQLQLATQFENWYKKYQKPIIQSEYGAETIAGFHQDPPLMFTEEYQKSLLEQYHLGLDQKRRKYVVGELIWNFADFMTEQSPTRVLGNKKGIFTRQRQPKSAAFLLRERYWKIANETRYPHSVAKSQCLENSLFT

[8] = Inhibition of alpha-chymotrypsin (unknown origin) using N-succinyl-L-phenylalanine-p-nitroanilide substrate; design: species or system Homo sapiens

| SMILES | pIC50 [2] | inhibition [4] [%] | inhibition [5] [%] | also measured |
| --- | --- | --- | --- | --- |
| CC(=C(C#N)C#N)c1sc2sc(C(C)=C(C#N)C#N)c(-c3ccccc3)c2c1C | < 4.52 | < 50 |  | IC50 [1]: 441.72 µM; inhibition [3]: < 50% |
| Cc1c(-c2ccc(C(=O)O)c(=O)[nH]2)sc2sc(-c3ccc(C(=O)O)c(=O)[nH]3)c(-c3ccccc3)c12 | < 4.52 | < 50 | < 50 | inhibition [3]: < 50% |
| Oc1ncnc2[nH]ncc12 [ALLOPURINOL] |  |  |  | pIC50 [6]: 5.70 |
| Cc1c(C(=O)/C=C/N(C)C)sc2sc(C(=O)/C=C/N(C)C)c(-c3ccccc3)c12 | < 4.52 | < 50 | < 50 | inhibition [7]: < 50%; inhibition [3]: < 50% |
| COc1cccc2c1C(=O)c1c(O)c3c(c(O)c1C2=O)C[C@@](O)(C(=O)CO)C[C@@H]3O[C@H]1C[C@H](N)[C@H](O)[C@H](C)O1 [DOXORUBICIN] | 6.04 |  |  |  |
| Cc1c(C(=O)/C(C=O)=N/Nc2ccccc2)sc2sc(C(=O)/C(C=O)=N/Nc3ccccc3)c(-c3ccccc3)c12 | 4.86 | < 50 | < 50 | inhibition [3]: < 50% |
| Cc1c(C(=O)c2cc(C#N)c(=N)n(-c3ccccc3)n2)sc2sc(C(=O)c3cc(C#N)c(=N)n(-c4ccccc4)n3)c(-c3ccccc3)c12 | 5.58 |  |  |  |
| Cc1c(C(=O)/C=C/N(C)C)sc2sc(C(=O)c3ccc(-c4sc5sc(C(=O)/C=C/N(C)C)c(-c6ccccc6)c5c4C)nc3)c(-c3ccccc3)c12 | < 4.52 | < 50 | < 50 |  |
| Cc1c(-c2ccc(C#N)c(=O)[nH]2)sc2sc(-c3ccc(C#N)c(=O)[nH]3)c(-c3ccccc3)c12 |  |  |  | IC50 [1]: 270.13 µM; inhibition [3]: < 50% |
| CCOC(=O)c1nn(-c2ccccc2)cc1C(=O)c1sc2sc(C(=O)c3cn(-c4ccccc4)nc3C(=O)OCC)c(-c3ccccc3)c2c1C | < 4.52 | < 50 |  | inhibition [7]: < 50% |
| Cc1c(C(=O)c2cc(C(=O)O)c(=O)[nH]n2)sc2sc(C(=O)c3cc(C(=O)O)c(=O)[nH]n3)c(-c3ccccc3)c12 | < 4.52 | < 50 | < 50 | pIC50 [6]: 3.92 |
| CC(C)C[C@H](NC(=O)[C@@H](NC(=O)N[C@@H](Cc1ccccc1)C(=O)O)C1CCNC(=N)N1)C(=O)N[C@H](C=O)Cc1ccccc1 (stereo partly drawn) [CHYMOSTATIN] |  |  |  | pIC50 [8]: 5.24 |
| Cc1c(C(/C=C/N(C)C)=C(C#N)C#N)sc2sc(C(/C=C/N(C)C)=C(C#N)C#N)c(-c3ccccc3)c12 | < 4.52 |  |  | pIC50 [8]: 3.69 |
| Cc1c(C(=O)/C=C/NO)sc2sc(C(=O)/C=C/NO)c(-c3ccccc3)c12 | < 4.52 |  |  |  |
| CCOC(/C=C/C(=O)c1sc2sc(C(=O)/C=C/C(OCC)(OCC)OCC)c(-c3ccccc3)c2c1C)(OCC)OCC | < 4.52 | < 50 | < 50 |  |
| Cc1c(/C(=C/C=C(\C#N)C(N)=O)N(C)C)sc2sc(/C(=C/C=C(\C#N)C(N)=O)N(C)C)c(-c3ccccc3)c12 | < 4.52 |  | < 50 | pIC50 [6]: 4.37 |
| CC(=O)c1ccc(-c2sc3sc(-c4ccc(C(C)=O)c(C)n4)c(-c4ccccc4)c3c2C)nc1C | < 4.52 |  | < 50 |  |
| CCOc1nc(-c2sc3sc(-c4ccc(C#N)c(OCC)n4)c(-c4ccccc4)c3c2C)ccc1C#N | < 4.52 | < 50 | < 50 | pIC50 [6]: 4.84 |
